# Measured values published in PMC9889749, “CID12261165, a flavonoid compound as antibacterial agents against quinolone-resistant Staphylococcus aureus” (Scientific Reports, 2023).
# How the values were obtained:
# Type in all cases: biochemical
# [1] = biological target: T1, DNA gyrase (wild-type GyrA + GyrB) (Staphylococcus aureus, UniProt P20831); experiment: in vitro DNA cleavage assay and DNA supercoiling assay with recombinant gyrase
# T1 construct: wild-type GyrA from strain FDA209P; with GyrB
# [2] = biological target: T2, topoisomerase IV (wild-type ParC) (Staphylococcus aureus, UniProt Q2FYS4); experiment: in vitro DNA cleavage assay with recombinant topoisomerase IV
# T2 construct: wild-type ParC from strain FDA209P; with ParE
# [3] = biological target: T3, DNA gyrase (GyrA S84L + wild-type GyrB) (Staphylococcus aureus, UniProt Q932M0); experiment: in vitro DNA cleavage assay and DNA supercoiling assay with recombinant gyrase
# T3 construct: GyrA(S84L) from strain Mu50; with GyrB
SMILES,in vitro DNA cleavage assay and DNA supercoiling assay with recombinant gyrase [1],IC50 [2],IC50 [3]
C[C@H]1COc2c(N3CCN(C)CC3)c(F)cc3c(=O)c(C(=O)O)cn1c23 [Levofloxacin],"using levofloxacin as a compound of interest, failure of DNA supercoiling activity was decreased upon acquisition of S84L mutation",1380 nM,–
COc1ccc2c(=O)cc(-c3ccc(O)c(OC)c3)oc2c1 [CID12261165],–,–,4 µg/mL
